This note sets out measurements from patent US7202254B2, “Antibacterial compounds: process for their preparation and pharmaceutical compositions containing them” (Dr. Reddy's Laboratories Limited, priority 2002, dated 2007).

Converted amounts (≈) assume the structure as drawn.

Data set [1] concerns Enterococcus faecalis ATCC 29212. Briefly: MIC by broth microdilution, Enterococcus sp DRCC 034 (S). The format is cell-based. The settings on record: ATCC29212; DRCC 034 = Enterococcus faecalis ATCC 29212, S; Mueller Hinton Broth, overnight 37° C.; read-out: Antimicrobial Screening (MIC) Enterococcus sp 034 S. Here is the method:
(§1) Minimum Inhibiton Concentrations (MICs) were determined by broth microdilution technique as per the guidelines prescribed om the fifth edition of Approved Standards, NCCLS document M7-A5 Vol 20-No 2, 2000 Villinova, Pa.
(§2) Initial stock solution of the test compound was prepared in DMSO. Subsequent two fold dilutions were carried out in sterile Mueller Hinton Broth (Difco) (MHB).
(§3) Frozen cultures stocks were inoculated into 50 mL sterile MHB in 250 mL Erlyn Meyer flasks.
(§4) Flasks were incubated for 4 to 5 h at 35° C. on a rotary shaker at 150 rpm. Inoculum was prepared by diluting the culture in sterile MHB to obtain a turbidity of 0.5 McFarland standard. This corresponds to 1–2×10^8 CFU/mL. The stock was further diluted in sterile broth to obtain 1–2×10^6 CFU/mL. 50 μl of the above diluted inoculum was added from 1–10 wells. The plates were incubated overnight at 37° C.

Data set [2] has as its system Staphylococcus aureus ATCC 29213. Briefly: MIC by broth microdilution, Staphylococcus aureus DRCC 035 (S). It is filed as cell-based. The settings on record: ATCC29213, DRCC 035 = ATCC 29213, S, Mueller Hinton Broth, overnight 37° C., read-out: Antimicrobial Screening (MIC) Staphylococcus aureus 035 S. On the procedure: as §1, §2, §3, §4
On the technique in general: Broth dilution looks for growth in wells or tubes with falling amounts of substance.

The test system of data set [3] is Enterococcus faecium NCTC 12202. Briefly: MIC by broth microdilution, Enterococcus sp DRCC 154 (R). It is filed as cell-based. The settings on record: NCTC12202; DRCC 154 = Enterococcus faecium NCTC 12202, R; Mueller Hinton Broth, overnight 37° C.; read-out: Antimicrobial Screening (MIC) Enterococcus sp 154 R. Here is the method: as §1, §2, §3, §4
Data set [4] has as its system Enterococcus faecalis NCTC 12201. Briefly: MIC by broth microdilution, Enterococcus sp DRCC 153 (R). The format is cell-based. The settings on record: NCTC12201; DRCC 153 = Enterococcus faecalis NCTC 12201, R; Mueller Hinton Broth, overnight 37° C.; read-out: Antimicrobial Screening (MIC) Enterococcus sp 153 R. On the procedure: as §1, §2, §3, §4
Data set [5] relates to Staphylococcus aureus ATCC 49951. The data set can be described thus: MIC by broth microdilution, Staphylococcus aureus DRCC 213 (Smith S). The format is cell-based. The settings on record: ATCC49951, DRCC 213 = ATCC 49951, Smith S, Mueller Hinton Broth, overnight 37° C., read-out: Antimicrobial Screening (MIC) Staphylococcus aureus 213 Smith S. On the procedure:
as §1, §2, §3, §4

Data set [6] concerns Escherichia coli ATCC 25922. The data set can be described thus: MIC by broth microdilution, E coli DRCC 18 (S). It is filed as cell-based. The settings on record: ATCC25922; DRCC 018 = Escherichia coli ATCC 25922, S; Mueller Hinton Broth, overnight 37° C.; read-out: Antimicrobial Screening (MIC) E coli 18 S. On the procedure:
as §1, §2, §3, §4

In data set [7] the test system is Staphylococcus aureus ATCC 33591. The data set can be described thus: MIC by broth microdilution, Staphylococcus aureus DRCC 019 (MRSA). It is filed as cell-based. The settings on record: DRCC 019 = ATCC 33591, MRSA, Mueller Hinton Broth, overnight 37° C., read-out: Antimicrobial Screening (MIC) Staphylococcus aureus 019 MRSA. On the procedure:
as §1, §2, §3, §4

A word on the MIC: it is the lowest concentration that inhibits growth of the organism. A word on the melting point: it is the temperature, or range, at which the solid turns liquid.

The compound `CC(=S)NCc1cn(-c2cc(F)c(N3CCOCC3)c(F)c2)nn1` [Example 51, N-[1-(3,5-Difluoro-4-morpholin-4-yl-phenyl)-1H-[1,2,3]triazol-4-ylmethyl]-thioacetamide] yielded a melting point of 190 °C. The MIC in data set [1] was determined as 2 µg/mL (≈ 5.66 µM). For the same compound, the MIC in data set [2] was 1 µg/mL (≈ 2.83 µM). The MIC in data set [3] was 2 µg/mL (≈ 5.66 µM). For the same compound, in data set [4], the MIC amounted to 1 µg/mL (≈ 2.83 µM). In addition, the MIC in data set [5] came to 1 µg/mL (≈ 2.83 µM). Further, the MIC in data set [6] came to 32 µg/mL (≈ 90.5 µM). For the same compound, the MIC in data set [7] is 1 µg/mL (≈ 2.83 µM).
With `CC(=S)NCc1cn(-c2ccc(N3CCOCC3)c(F)c2)nn1` [Example 52, N-[1-(3-Fluoro-4-morpholin-4-yl-phenyl)-1H-[1,2,3]triazol-4-ylmethyl]-thioacetamide], the melting point is 192 °C. The MIC in data set [1] came out at 2 µg/mL (≈ 5.96 µM). Besides, the MIC in data set [2] was 2 µg/mL (≈ 5.96 µM). Further, in data set [3], the MIC was 2 µg/mL (≈ 5.96 µM). For the same compound, the MIC in data set [4] was 2 µg/mL (≈ 5.96 µM). Moreover, in data set [5], the MIC amounted to 2 µg/mL (≈ 5.96 µM). In addition, the MIC in data set [6] stood at 256 µg/mL (≈ 763 µM). Besides, in data set [7], the MIC amounted to 2 µg/mL (≈ 5.96 µM).
Regarding `COC(=S)NCc1cn(-c2cc(F)c(N3CCOCC3)c(F)c2)nn1` [Example 54, [1-(3,5-Difluoro-4-morpholin-4-yl-phenyl)-1H-[1,2,3]triazol-4-ylmethyl]-thiocarbamic acid O-methyl ester], the melting point came to 135 °C. In addition, in data set [1], the MIC is 4 µg/mL (≈ 10.8 µM). The MIC in data set [2] came out at 4 µg/mL (≈ 10.8 µM). The MIC in data set [3] amounted to 4 µg/mL (≈ 10.8 µM). In addition, the MIC in data set [4] is 4 µg/mL (≈ 10.8 µM). For the same compound, the MIC in data set [5] was found to be 2 µg/mL (≈ 5.41 µM). Also, the MIC in data set [6] turned out to be 32 µg/mL (≈ 86.6 µM). For the same compound, the MIC in data set [7] was found to be 2 µg/mL (≈ 5.41 µM).
The compound `COC(=S)NCc1cn(-c2ccc(N3CCOCC3)c(F)c2)nn1` [Example 55, [1-(3-Fluoro-4-morpholin-4-yl-phenyl)-1H-[1,2,3]triazol-4-ylmethyl]-thiocarbamic acid O-methyl ester] had a melting point of 148 °C. Besides, the MIC in data set [2] was found to be 4 µg/mL (≈ 11.4 µM). In data set [3], the MIC came to 8 µg/mL (≈ 22.8 µM). The MIC in data set [4] was 4 µg/mL (≈ 11.4 µM). The MIC in data set [5] was 4 µg/mL (≈ 11.4 µM). Moreover, the MIC in data set [6] is 32 µg/mL (≈ 91.1 µM). Further, in data set [7], the MIC stood at 4 µg/mL (≈ 11.4 µM).
As to `COC(=S)NCc1cn(-c2cc(F)c(N3CCSCC3)c(F)c2)nn1` [Example 56, [1-(3,5-Difluoro-4-thiomorpholin-4-yl-phenyl)-1H-[1,2,3]triazol-4-ylmethyl]-thiocarbamic acid O-methyl ester], the melting point was found to be 127 °C. Also, the MIC in data set [1] is 2 µg/mL (≈ 5.19 µM). The MIC in data set [2] was 2 µg/mL (≈ 5.19 µM). Moreover, the MIC in data set [3] is 8 µg/mL (≈ 20.8 µM). In addition, the MIC in data set [4] came to 2 µg/mL (≈ 5.19 µM). The MIC in data set [5] was 1 µg/mL (≈ 2.59 µM). Further, the MIC in data set [6] is 32 µg/mL (≈ 83 µM). In data set [7], the MIC was 1 µg/mL (≈ 2.59 µM).
Compound `COC(=S)NCc1cn(-c2cc(F)c(N3CCS(=O)(=O)CC3)c(F)c2)nn1` [Example 58, {1-[4-(1,1-Dioxo-1lambda*6*-thiomorpholin-4-yl)-3,5-difluoro-phenyl]-1H-[1,2,3]triazol-4-ylmethyl}-thiocarbamic acid O-methyl ester] registered a melting point of 162 °C. The minimum inhibitory concentration (MIC) in data set [1] was determined as 4 µg/mL (≈ 9.58 µM). Also, the MIC in data set [2] was found to be 2 µg/mL (≈ 4.79 µM). For the same compound, the MIC in data set [3] was determined as 4 µg/mL (≈ 9.58 µM). Further, the MIC in data set [4] was determined as 2 µg/mL (≈ 4.79 µM). Also, in data set [5], the minimum inhibitory concentration (MIC) was 2 µg/mL (≈ 4.79 µM). The MIC in data set [6] came to 32 µg/mL (≈ 76.7 µM). In data set [7], the MIC came to 1 µg/mL (≈ 2.4 µM).
Compound `COC(=S)NCc1cn(-c2ccc(N3CCSCC3)c(F)c2)nn1` [Example 59, [1-(3-Fluoro-4-thiomorpholin-4-yl-phenyl)-1H-[1,2,3]triazol-4-ylmethyl]-thiocarbamic acid O-methyl ester] came in with a melting point of 168 °C. Further, the MIC in data set [1] was found to be 8 µg/mL (≈ 21.8 µM). The MIC in data set [2] is 4 µg/mL (≈ 10.9 µM). For the same compound, the MIC in data set [3] came out at 8 µg/mL (≈ 21.8 µM). In addition, the MIC in data set [4] is 8 µg/mL (≈ 21.8 µM). Besides, the MIC in data set [5] was 2 µg/mL (≈ 5.44 µM). The MIC in data set [6] was over 32 µg/mL. Moreover, the MIC in data set [7] was found to be 2 µg/mL (≈ 5.44 µM).
On to `COC(=S)NCc1cn(-c2ccc(N3CC[S+]([O-])CC3)c(F)c2)nn1` [Example 60, {1-[3-Fluoro-4-(1-oxo-lambda*4*-thiomorpholin-4-yl)-phenyl]-1H-[1,2,3]triazol-4-ylmethyl}-thiocarbamic acid O-methyl ester], for which the melting point stood at 198 °C. In addition, the MIC in data set [1] was determined as 2 µg/mL (≈ 5.22 µM). For the same compound, in data set [2], the MIC was found to be 2 µg/mL (≈ 5.22 µM). Further, in data set [3], the minimum inhibitory concentration (MIC) amounted to 4 µg/mL (≈ 10.4 µM). Also, the MIC in data set [4] was 1 µg/mL (≈ 2.61 µM). Moreover, the MIC in data set [5] is 1 µg/mL (≈ 2.61 µM). Also, the MIC in data set [6] was over 32 µg/mL. For the same compound, the MIC in data set [7] was found to be 1 µg/mL (≈ 2.61 µM).
`COC(=S)NCc1cn(-c2ccc(N3CCS(=O)(=O)CC3)c(F)c2)nn1` [Example 61, {1-[4-(1,1-Dioxo-1lambda*6*-thiomorpholin-4-yl)-3-fluoro-phenyl]-1H-[1,2,3]triazol-4-ylmethyl}-thiocarbamic acid O-methyl ester] had a melting point of 184 °C. The minimal inhibitory concentration (MIC) in data set [1] was 2 µg/mL (≈ 5.01 µM). Besides, the MIC in data set [2] was 4 µg/mL (≈ 10 µM). Also, the MIC in data set [3] amounted to 8 µg/mL (≈ 20 µM). Also, the MIC in data set [4] is 2 µg/mL (≈ 5.01 µM). Further, in data set [5], the MIC came out at 2 µg/mL (≈ 5.01 µM). For the same compound, the MIC in data set [6] was over 32 µg/mL. Also, in data set [7], the MIC came to 2 µg/mL (≈ 5.01 µM).
Turning to `CSC(=S)NCc1cn(-c2ccc(N3CCOCC3)c(F)c2)nn1` [Example 67, [1-(3-Fluoro-4-morpholin-4-yl-phenyl)-1H-[1,2,3]triazol-4-ylmethyl]-dithiocarbamic acid methyl ester], the MIC stood at 1 µg/mL (≈ 2.72 µM) in data set [1]; 1 µg/mL (≈ 2.72 µM) in data set [2]; 1 µg/mL (≈ 2.72 µM) in data set [3]; 1 µg/mL (≈ 2.72 µM) in data set [4]; 1 µg/mL (≈ 2.72 µM) in data set [5]; 32 µg/mL (≈ 87.1 µM) in data set [6]. For the same compound, the MIC in data set [7] turned out to be 1 µg/mL (≈ 2.72 µM).
In turn, `COC(=S)NCc1cn(-c2cc(F)c(N3CCC(=O)CC3)c(F)c2)nn1` [Example 85, {1-[3,5-Difluoro-4-(4-oxo-piperidin-1-yl)-phenyl]-1H-[1,2,3]triazol-4-ylmethyl}thiocarbamic acid O-methyl ester] had a melting point of 175 to 176 °C.
